Laboratory results published in patent US20140051650A1, “VAGINAL COMPOSITIONS BASED ON ALKYL POLYGLUCOSIDES” (EFFIK S.A., priority 2011, published 2014).

Experiments:
Format in all cases: cell-based
Streptococcus agalactiae = assay: Minimum Inhibitory Concentration (MIC) on agarised medium against Streptococcus agalactiae
Description: The assay was carried out on an M-Ha medium+blood at 5%. The medium was prepared at a concentration 33% higher with respect to the final one used in the test corresponding to the one indicated by the supplier. After sterilisation in autoclave, the medium was balanced at the temperature of 48° C. and added with horse blood at the concentration of 6.6% (33% higher than the final concentration of the assay). 15 ml aliquots of M-Ha medium+blood were transferred into 50 ml falcon test tubes maintained at 48° C., added with 5 ml of the dilutions of the substances to be assayed, mixed, poured into Petri dishes and left to solidify. Twenty-five bacterial inoculums, each with approximate volume of about 5 μl and containing about 10^5 ufc, were deposited on the surface of the M-Ha medium+blood of each plate. After incubation at 37° C. for 18 hours the minimum inhibitory concentration (MIC) defined as the minimum concentration of substance capable of inhibiting a bacterial growth noticeable to the naked eye at the area of deposition of the inoculums was read.
In the test with Streptococcus agalactiae the minimum inhibitory concentrations in the assay in liquid medium, regarding which only the bactericide minimum concentration values are indicated, could not be determined with sufficient reliability due to the turbidity of the solutions containing the substances. “Determination of the Minimum Inhibitory Concentration on Agarised Medium” was carried out to obtain the MIC values.

[1] = test system: Lactobacillus crispatus NCIMB 4505; assay: MIC against Lactobacillus crispatus; conditions: substance alone
Description: The vaginal lactobacillus strains used are the NCIMB 4505 strain of Lactobacillus crispatus, the NCIMB 13279 strain of Lactobacillus jensenii and NCIMB 702820 strain of Lactobacillus gasseri. [table] The other assayed microbial strains were cultured in the liquid media and in the incubation conditions specified in table A, following the operating procedure described above. The assay was carried out in 96-well microtitre plates. 50 μl of substance solution at the “mother” concentration alongside 50 μl of liquid medium at double concentration were deposited in the first well of each of the 8 rows while 50 μl of liquid medium at normal concentration were deposited in the remaining 11 wells. Starting from the first well of each row, 50 μl volumes were transferred from each well to the subsequent one 10 times, thus obtaining a series of 11 dilutions after doubling. The 12th well of each row was kept substance-free as a function of positive control of the bacterial growth. Subsequently, 50 μl of diluted bacterial inoculum as specified previously were deposited in all wells of the plate, except for the 11th of each row. Only the liquid medium at single concentration but bacteria-free, was deposited in the 11th well, with the aim of providing negative control for each row. The described scheme was used for the assay with each of the assayed microbial strains. […]

[2] = test system: Neisseria gonorrhoeae ATCC 43069; assay: MBC against Neisseria gonorrhoeae; conditions: substance alone
Description: The Gardnerella vaginalis ATCC 14018 strain, the Neisseria gonorrhoeae ATCC 43069 strain and the Candida albicans ATCC 10231 strain were also used for the experiment. [table] The other assayed microbial strains were cultured in the liquid media and in the incubation conditions specified in table A, following the operating procedure described above. Immediately after determining the value of the MIC for each substance, a volume equivalent to 50 μl was taken from each well and streaked on the surface of plates containing the solid medium. The plates were subsequently incubated at the conditions indicated for each microbial strain. After incubation at 37° C. for 24 hours, the number of colonies grown on the medium surface was counted thus determining the number of bacteria that survived after 24 hours of contact with the substance at the concentration present in the well. The MBC value defined as the lowest concentration of each substance capable of reducing the bacterial load by 99.9% in the previously defined assay conditions was determined through comparison between the number of bacteria that survived in each well and that of the bacterial inoculum deposited initially.

vaginal lactobacilli = assay: Activity on vaginal lactobacilli compared with the pathogen strains; conditions: lactobacilli versus G. vaginalis
Description: By comparison, the lactobacillus strains dominating in the physiological colonization of the vaginal mucosa typical in healthy women were also tested. Thus, such explorative activity was carried out on such strains with the aim of evaluating a selectivity of the compounds of the invention with respect to the pathogenic microorganisms with respect to the lactobacillus bacterial flora. Immediately after determining the value of the MIC for each substance, a volume equivalent to 50 μl was taken from each well and streaked on the surface of plates containing the solid medium. The plates were subsequently incubated at the conditions indicated for each microbial strain. After incubation at 37° C. for 24 hours, the number of colonies grown on the medium surface was counted thus determining the number of bacteria that survived after 24 hours of contact with the substance at the concentration present in the well. The MBC value defined as the lowest concentration of each substance capable of reducing the bacterial load by 99.9% in the previously defined assay conditions was determined through comparison between the number of bacteria that survived in each well and that of the bacterial inoculum deposited initially.

caprylyl/capryl glucoside/C8-C10 alkyl polyglucoside [Substance A1]
MIC (minimum inhibiting concentration) (Streptococcus agalactiae; strain 2, substance alone): 0.093%
MIC (minimum inhibiting concentration) (Streptococcus agalactiae; strain 5, substance alone): 0.093%
MIC (minimum inhibiting concentration) (Streptococcus agalactiae; strain 6, substance alone): 0.048%
MIC (minimum inhibiting concentration) (Streptococcus agalactiae; strain 7, substance alone): 0.093%
MIC (minimum inhibiting concentration) (Streptococcus agalactiae; strain 8, substance alone): 0.19%
MIC (minimum inhibiting concentration) (Streptococcus agalactiae; strain 9, substance alone): 0.093%
MIC (minimum inhibiting concentration) (Streptococcus agalactiae; strain 10, substance alone): 0.19%
MIC (minimum inhibiting concentration) (Streptococcus agalactiae; strain 11, substance alone): 0.093%
MIC (minimum inhibiting concentration) (Streptococcus agalactiae; strain 12, substance alone): 0.093%
MIC (minimum inhibiting concentration) (Streptococcus agalactiae; strain 13, substance alone): 0.093%
MIC (minimum inhibiting concentration) (Streptococcus agalactiae; strain 14, substance alone): 0.093%
MIC (minimum inhibiting concentration) (Streptococcus agalactiae; strain 15, substance alone): 0.048%
MIC (minimum inhibiting concentration) (Streptococcus agalactiae; strain 16, substance alone): 0.093%
MIC (minimum inhibiting concentration) (Streptococcus agalactiae; strain 17, substance alone): 0.048%
MIC (minimum inhibiting concentration) (Streptococcus agalactiae; strain 18, substance alone): 0.19%
MIC (minimum inhibiting concentration) (Streptococcus agalactiae; strain 19, substance alone): 0.093%
MIC (minimum inhibiting concentration) (Streptococcus agalactiae; strain 20, substance alone): 0.048%
MIC (minimum inhibiting concentration) (Streptococcus agalactiae; strain 21, substance alone): 0.048%
MIC (minimum inhibiting concentration) (Streptococcus agalactiae; strain 22, substance alone): 0.093%
MIC (minimum inhibiting concentration) (Streptococcus agalactiae; strain 23, substance alone): 0.093%
MIC (minimum inhibiting concentration) (Streptococcus agalactiae; strain 24, substance alone): 0.093%
MIC (minimum inhibiting concentration) (Streptococcus agalactiae; strain 25, substance alone): 0.048%
MIC (minimum inhibiting concentration) (Streptococcus agalactiae; strain 12386, substance alone): 0.093%
MIC (minimum inhibiting concentration) (Streptococcus agalactiae; strain 12403, substance alone): 0.093%
MIC (minimum inhibiting concentration) (Streptococcus agalactiae; strain 27956, substance alone): 0.093%
MIC [1]: 0.097%

lauryl glucoside/C12-C16 alkyl polyglucoside [Substance A2]
MIC (minimum inhibiting concentration) (Streptococcus agalactiae; strain 2, substance alone): 0.0097%
MIC (minimum inhibiting concentration) (Streptococcus agalactiae; strain 5, substance alone): 0.019%
MIC (minimum inhibiting concentration) (Streptococcus agalactiae; strain 6, substance alone): 0.0097%
MIC (minimum inhibiting concentration) (Streptococcus agalactiae; strain 7, substance alone): 0.0097%
MIC (minimum inhibiting concentration) (Streptococcus agalactiae; strain 8, substance alone): 0.019%
MIC (minimum inhibiting concentration) (Streptococcus agalactiae; strain 9, substance alone): 0.0097%
MIC (minimum inhibiting concentration) (Streptococcus agalactiae; strain 10, substance alone): 0.019%
MIC (minimum inhibiting concentration) (Streptococcus agalactiae; strain 11, substance alone): 0.0097%
MIC (minimum inhibiting concentration) (Streptococcus agalactiae; strain 12, substance alone): 0.0097%
MIC (minimum inhibiting concentration) (Streptococcus agalactiae; strain 13, substance alone): 0.0097%
MIC (minimum inhibiting concentration) (Streptococcus agalactiae; strain 14, substance alone): 0.0097%
MIC (minimum inhibiting concentration) (Streptococcus agalactiae; strain 15, substance alone): 0.019%
MIC (minimum inhibiting concentration) (Streptococcus agalactiae; strain 16, substance alone): 0.0097%
MIC (minimum inhibiting concentration) (Streptococcus agalactiae; strain 17, substance alone): 0.0097%
MIC (minimum inhibiting concentration) (Streptococcus agalactiae; strain 18, substance alone): 0.019%
MIC (minimum inhibiting concentration) (Streptococcus agalactiae; strain 19, substance alone): 0.0097%
MIC (minimum inhibiting concentration) (Streptococcus agalactiae; strain 20, substance alone): 0.0097%
MIC (minimum inhibiting concentration) (Streptococcus agalactiae; strain 21, substance alone): 0.0097%
MIC (minimum inhibiting concentration) (Streptococcus agalactiae; strain 22, substance alone): 0.0097%
MIC (minimum inhibiting concentration) (Streptococcus agalactiae; strain 23, substance alone): 0.0097%
MIC (minimum inhibiting concentration) (Streptococcus agalactiae; strain 24, substance alone): 0.0097%
MIC (minimum inhibiting concentration) (Streptococcus agalactiae; strain 25, substance alone): 0.0097%
MIC (minimum inhibiting concentration) (Streptococcus agalactiae; strain 12386, substance alone): 0.0097%
MIC (minimum inhibiting concentration) (Streptococcus agalactiae; strain 12403, substance alone): 0.0097%
MIC (minimum inhibiting concentration) (Streptococcus agalactiae; strain 27956, substance alone): 0.019%
MBC [2]: ≦0.0012%
MBC values in vaginal lactobacilli, times higher than those observed in G. vaginalis (vaginal lactobacilli): about 15 times
MIC [1]: 0.038%
